In patent US20230321012A1 (priority 2021, published 2023):
Values joined by “and” are separate entries in the source; they are usually repeats but may differ in a detail not shown here. Equal entries are not always repeated.

How the values were obtained:
[1] = Clinical plasma pharmacokinetics of oral DFMO (NCT03536728); assay type: in vivo; conditions: human
Text: Clinical Trial Outline. […] All solid tumor types are eligible for the trial. […] DFMO was delivered orally twice daily in gel capsules.

[2] = MALDI-FTICR imaging quantitation of DFMO in whole-body sections of Th-MYCN mice; assay type: in vivo, mouse; conditions: for concentration at 96 h: male, Th-MYCN, mouse
Procedure: Male Th-MYCN mice, approximately 5-6 weeks of age, with spontaneous neuroblastoma tumor development commenced treatment according to Table 6.1 when tumors were approximately 5 mm in size. […] Time point: three treatments, cull 24 hours after last treatment in the morning.
Sample Preparation. Animals were euthanized on the morning of the 4th day, after three days of treatment and shaved, and then the carcasses were frozen. Tissues stored at −80° C. were placed inside the cryostat. The temperature of the cryostat was maintained around −20° C. and −40° C. 20-am tissue sections in the sagittal plane going through the left eye were obtained for each carcass. Tissue sections were mounted directly on indium tin oxide (ITO) slides.
Tissue sections on ITO slides were placed in a desiccator for 15 minutes before matrix deposition. An image of the slides was then acquired with a scanner to synchronize positions of the tissue sections with the target of the laser.
Dilution series of the test items were prepared in water from the stock solutions. […] A spot of pure solvent was added as a negative control. Slides were then placed in a desiccator for 15 minutes before MALDI matrix deposition. The control liver tissue consisted of a liver homogenate spiked with an olanzapine standard at 40 g/g of tissue. Sections of the liver homogenate were prepared and added on each ITO slide in order to monitor the signal of the FTICR through the different acquisitions and thus validate the comparison between slides.
For AMXT 1501, 2,5-dihydroxybenzoic acid (DHB) at 40 mg/ml in 1:1 MeOH/H2O with 1% trifluoroacetic acid (TFA) and 25 nM of ^13C4-AMXT 1501 was sprayed on the samples with an automatic sprayer (TM-Sprayer, HTX-Imaging).
The mass spectrometry imaging (MSI) acquisitions were performed using the parameters in Table 6.2 with a data reduction parameter set at 95%. MSI data were acquired and analyzed with FlexImaging 4.1 (Bruker Daltonics), Data Analysis 4.0 (Bruker Daltonics) and Multimaging™ 1.2.2 (ImaBioTech).
Intensity scales representing the molecular signal were adjusted for each image to discriminate the noise from the molecular signal but also to give the best visualization of the signal across the sections. […] Convolution step was performed on the original images using a normalized uniform kernel, which averages the values around a position. The kernel size was manually optimized for the analysis, minimizing the background noise. Based on the MSI data set on the tissue sections and the dilution series, the quantitation of the test items was performed with the IS approach. A correlation between the calibration curve and the signal obtained on the tissues was performed in order to determine the concentration of the test items per histological structure in g/g of tissue and μM.

[3] = system: spermidine; assay: MALDI-FTICR imaging quantitation of PD marker spermidine in whole-body sections of Th-MYCN mice; assay type: in vivo, mouse; conditions: for Quantitation of spermidine in the whole-body section: Th-MYCN mice, one value per animal
Procedure: (§1) The lower limit of detection based on the calibration curve using labeled spermidine was 0.80 μg/g, while for spermine it was 1.10 μg/g.

[4] = system: spermine; assay: MALDI-FTICR imaging quantitation of PD marker spermine in whole-body sections of Th-MYCN mice; assay type: in vivo, mouse; conditions: for Quantitation of spermine in the whole-body section: Th-MYCN mice, one value per animal
Procedure: as §1

[5] = Water solubility, bioavailability and Biopharmaceutics Classification System class; assay type: physicochemical
Text: Interim data for the pharmacokinetic (PK) behavior of both agents in human subjects has been generated.

[6] = system: NCI 60-cell line panel; conditions: used up to 5 mM, any cell line tested; cited from earlier work
[7] = COMBO (1% DFMO + AMXT 1501 2.5 mg/kg SC), mice 284, 286, 96 h, 2.5 mg/kg
[8] = DFMO alone 1% in drinking water, mice 049, 082, 96 h
[9] = raw determination, individual Th-MYCN mice, 96 h
[10] = raw determination, treatment group average, 96 h

NCCCC(N)(C(=O)O)C(F)F (centres unmarked) [DFMO, difluoromethylornithine]
AUC ([1]; 500 mg/day split BID, Day 28, n=14): 11400 ng·h/mL
Cmax ([1]; 7-day repeat dosing of 1000 mg split BID, Cohort 3, n=6): 4440 ng/mL
DFMO in Intestine wall ([2]; COMBO (1% DFMO + AMXT 1501 2.5 mg/kg SC), mice 284, 286, 96 h): 6156 µg/g
DFMO in Cardiac blood [2, 7]: 20.9 µg/g
DFMO in Eye [2, 7]: 49.3 µg/g
DFMO in Intestine contents [2, 7]: 8702 µg/g and 11264 µg/g
DFMO in Liver [2, 7]: 33.0 µg/g
DFMO in Lung [2, 7]: 43.1 µg/g
DFMO in Myocardium [2, 7]: 26.2 µg/g
DFMO in Cardiac blood [2, 8]: 16.5 µg/g
DFMO in Eye [2, 8]: 28.8 µg/g
DFMO in Intestine contents [2, 8]: 3487 µg/g and 2267 µg/g
DFMO in Kidney [2, 8]: 133 µg/g
DFMO in Liver [2, 8]: 28.5 µg/g
DFMO in Lung [2, 8]: 24.8 µg/g
DFMO concentration in tumor ([2]; DFMO only treatment group): 35 μg/g and 192 μM
tumor DFMO levels ([2]; MYCN mice after overnight drinking of 1% DFMO orally): 165 to 192 µM
DFMO concentration in tumor ([2]; combination treatment group): 30 μg/g and 165 μM
tumor DFMO concentration versus Ki ([2]; combination treatment group): 4.2 times
concentration at 96 h ([2]; brown fat, oral, 40 mg/day, DFMO in brown fat): ~25000 ng/g
concentration at 96 h ([2]; brown fat, oral, 1 % in drinking water, DFMO in Brown fat, DFMO alone 1% in drinking water, mice 049, 082, 96 h): 22600 ng/g
concentration at 96 h ([2]; brown fat, sc, 2.5 mg/kg, DFMO in Brown fat, COMBO (1% DFMO + AMXT 1501 2.5 mg/kg SC), mice 284, 286, 96 h): 27500 ng/g
concentration at 96 h ([2]; cardiac blood, oral, 40 mg/day, DFMO in cardiac blood, combination and single administration regimens): 16000 to 35000 ng/g
concentration at 96 h ([2]; cardiac blood, oral, 1 % in drinking water, DFMO in Cardiac blood, DFMO alone 1% in drinking water, mice 049, 082, 96 h): 27800 ng/g
concentration at 96 h ([2]; cardiac blood, sc, 2.5 mg/kg, DFMO in Cardiac blood, COMBO (1% DFMO + AMXT 1501 2.5 mg/kg SC), mice 284, 286, 96 h): 35400 ng/g
concentration at 96 h ([2]; eye, oral, 1 % in drinking water, DFMO in Eye, DFMO alone 1% in drinking water, mice 049, 082, 96 h): 33000 ng/g
concentration at 96 h ([2]; eye, sc, 2.5 mg/kg, DFMO in Eye, COMBO (1% DFMO + AMXT 1501 2.5 mg/kg SC), mice 284, 286, 96 h): 92100 ng/g
concentration at 96 h ([2]; intestine wall, oral, 1 % in drinking water, DFMO in Intestine wall, DFMO alone 1% in drinking water, mice 049, 082, 96 h): 803000 ng/g
concentration at 96 h ([2]; kidney, oral, 1 % in drinking water, DFMO in Kidney, DFMO alone 1% in drinking water, mice 049, 082, 96 h): 77600 ng/g
concentration at 96 h ([2]; liver, oral, 1 % in drinking water, DFMO in Liver, DFMO alone 1% in drinking water, mice 049, 082, 96 h): 36100 ng/g
concentration at 96 h ([2]; liver, sc, 2.5 mg/kg, DFMO in Liver, COMBO (1% DFMO + AMXT 1501 2.5 mg/kg SC), mice 284, 286, 96 h): 44700 ng/g
concentration at 96 h ([2]; lung, oral, 1 % in drinking water, DFMO in Lung, DFMO alone 1% in drinking water, mice 049, 082, 96 h): 48700 ng/g
concentration at 96 h ([2]; lung, sc, 2.5 mg/kg, DFMO in Lung, COMBO (1% DFMO + AMXT 1501 2.5 mg/kg SC), mice 284, 286, 96 h): 64700 ng/g
concentration at 96 h ([2]; myocardium, oral, 1 % in drinking water, DFMO in Myocardium, DFMO alone 1% in drinking water, mice 049, 082, 96 h): 10000 ng/g
concentration at 96 h ([2]; myocardium, sc, 2.5 mg/kg, DFMO in Myocardium, COMBO (1% DFMO + AMXT 1501 2.5 mg/kg SC), mice 284, 286, 96 h): 28500 ng/g
concentration at 96 h ([2]; oral, 40 mg/day, DFMO in eye, kidney, liver, lung, testis and thymus, range from testis to eye, both treatments): 14000 to 92000 ng/g
concentration at 96 h ([2]; pancreas, sc, 2.5 mg/kg, DFMO in Pancreas, COMBO (1% DFMO + AMXT 1501 2.5 mg/kg SC), mice 284, 286, 96 h): 83000 ng/g
concentration at 96 h ([2]; spleen, sc, 2.5 mg/kg, DFMO in Spleen, COMBO (1% DFMO + AMXT 1501 2.5 mg/kg SC), mice 284, 286, 96 h): 83600 ng/g
concentration at 96 h ([2]; stomach contents, sc, 2.5 mg/kg, DFMO in Stomach contents, COMBO (1% DFMO + AMXT 1501 2.5 mg/kg SC), mice 284, 286, 96 h): 111000 ng/g
concentration at 96 h ([2]; stomach wall, oral, 1 % in drinking water, DFMO in Stomach wall, DFMO alone 1% in drinking water, mice 049, 082, 96 h): 216000 ng/g
concentration at 96 h ([2]; stomach wall, sc, 2.5 mg/kg, DFMO in Stomach wall, COMBO (1% DFMO + AMXT 1501 2.5 mg/kg SC), mice 284, 286, 96 h): 44500 ng/g
concentration at 96 h ([2]; testis, oral, 1 % in drinking water, DFMO in Testis, DFMO alone 1% in drinking water, mice 049, 082, 96 h): 14500 ng/g
concentration at 96 h ([2]; testis, sc, 2.5 mg/kg, DFMO in Testis, COMBO (1% DFMO + AMXT 1501 2.5 mg/kg SC), mice 284, 286, 96 h): 48200 ng/g
concentration at 96 h ([2]; thymus, oral, 1 % in drinking water, DFMO in Thymus, DFMO alone 1% in drinking water, mice 049, 082, 96 h): 20900 ng/g
concentration at 96 h ([2]; thymus, sc, 2.5 mg/kg, DFMO in Thymus, COMBO (1% DFMO + AMXT 1501 2.5 mg/kg SC), mice 284, 286, 96 h): 26700 ng/g
concentration at 96 h ([2]; tumor, oral, 1 % in drinking water, DFMO in Tumor, DFMO alone 1% in drinking water, mice 049, 082, 96 h): 35100 ng/g
concentration at 96 h ([2]; tumor, sc, 2.5 mg/kg, DFMO in Tumor, COMBO (1% DFMO + AMXT 1501 2.5 mg/kg SC), mice 284, 286, 96 h): 30400 ng/g
Quantitation of spermidine in the whole-body section ([3]; Brain): 1.86 µM
Quantitation of spermidine in the whole-body section ([3]; Brown fat): 3.80 µM
Quantitation of spermidine in the whole-body section ([3]; Cardiac blood): 0.00 µM
Quantitation of spermidine in the whole-body section ([3]; Eye): 6.11 µM and 5.24 µM
Quantitation of spermidine in the whole-body section ([3]; Intestine contents): 43.17 µM and 5.61 µM
Quantitation of spermidine in the whole-body section ([3]; Intestine wall): 4.56 µM
Quantitation of spermidine in the whole-body section ([3]; Kidney): 1.35 µM
Quantitation of spermidine in the whole-body section ([3]; Liver): 6.67 µM
Quantitation of spermidine in the whole-body section ([3]; Lung): 4.53 µM and 2.64 µM
Quantitation of spermidine in the whole-body section ([3]; Stomach wall): 1.13 µM
Quantitation of spermidine in the whole-body section ([3]; Testis): 1.97 µM
Quantitation of spermidine in the whole-body section ([3]; Thymus): 6.00 µM
Quantitation of spermidine in the whole-body section ([3]; Tumor): 5.39 µM
spermidine level in tumor, comparison of groups ([3]; mouse, in vivo): highest levels
Spermidine concentration in tumor, Values [3, 9]: BLOD and 5.39 μM
Spermidine concentration in tumor, Average [3, 10]: 5.39 µM
spermidine in eye ([3]; vehicle 9.14 μM): 6 µM
Quantitation of spermine in the whole-body section ([4]; Eye): 16.03 µM and 8.07 µM
Quantitation of spermine in the whole-body section ([4]; Intestine contents): 2.46 µM
Quantitation of spermine in the whole-body section ([4]; Intestine wall): 3.44 µM
Quantitation of spermine in the whole-body section ([4]; Kidney): 4.69 µM
Quantitation of spermine in the whole-body section ([4]; Liver): 2.14 µM
Quantitation of spermine in the whole-body section ([4]; Lung): 4.78 µM and 7.91 µM
Quantitation of spermine in the whole-body section ([4]; Myocardium): BLOQ
Quantitation of spermine in the whole-body section ([4]; Stomach contents): 0.00 µM
Quantitation of spermine in the whole-body section ([4]; Stomach wall): BLOQ
Quantitation of spermine in the whole-body section ([4]; Testis): 7.40 µM
Quantitation of spermine in the whole-body section ([4]; Thymas): BLOQ
Quantitation of spermine in the whole-body section ([4]; Tumor): 6.03 µM
spermine in lung ([4]; group average): 6.35 µM
spermine level in tumor, comparison of groups ([4]; mouse, in vivo): highest levels
Spermine concentration in tumor, Value [4, 9]: BLOD and 6.03 μM
Spermine concentration in tumor, Average [4, 10]: 6.03 µM
spermine in eye ([4]; vehicle 17.6 μM): 12 µM
water solubility [5]: high water solubility
growth inhibitory effect [6]: no growth inhibitory effect
